Laboratory results published in patent US10954239B2, “Imidazoquinoline amine derivatives, pharmaceutical compositions and therapeutic methods thereof” (CanWell Biotech Limited, priority 2019, dated 2021).
Read-outs that look alike come from different tables or passages of the source.

Test system: human PBMC
Test: TLR7/8 agonists induce cytokine release in human PBMC (ELISA of culture supernatant, 24 h)
Assay type: cell-based
Conditions: minimum effective concentration: lowest concentration inducing cytokine at least 2x negative control, tested 0.0152-100 μM
Experimental: Example 13. TLR7/8 agonists induce IFN-gamma and TNF-alpha release in human PBMC
The system is used to assess the cytokines release. Activity is based on the measurement of interferon-gamma (IFN-γ) and tumor necrosis factor-alpha (TNF-α) secreted into culture media.
Fresh human blood was diluted with the same volume of PBS, 15 mL Lymphoprep was added into a Sepmate tube, then 30 mL diluted blood was added on the top gently without disturbing the interface.
The Sepmate tube was centrifuged for 25 min at 1000×g at RT with brake off.
The buffy coat containing peripheral blood mononuclear cells (PBMCs) was collected from Sepmate tube and transferred into a new tube, and the cells were washed with 40 mL PBS twice and centrifuged at 350×g for 5 min.
PBMCs were resuspended in complete culture medium at a density of 2E6/mL.
The compounds are solubilized in dimethyl sulfoxide (DMSO) and diluted into indicated concentration with complete culture medium.
2*10^5 PBMCs (in 100 μL) were added to each well of 96-well flat bottom plate.
2× final concentration of 3-fold serial diluted compounds (in 100 μL) were added to indicated wells and final volume was 200 μL.
The plate was covered with sterile lids, mixed gently and then incubated for 24 h at 37° C./5% CO2 incubator.
Following incubation, the plates was centrifuged for 5 min. at 400×g. The cell-free culture Supernatant was removed into a non-sterile polypropylene plate. Samples are maintained at −80° C. until analysis. The samples were analyzed for TNF-α and IFN-γ by ELISA according to the direction.
TNF-α and IFN-α were analyzed by ELISA. IFN-α concentration was determined by ELISA using a Human IFN-α ELISA Kit from R&D Systems (Catalog #41100-2) and read on VICTOR Nivo™ from PerkinElmer. Results were expressed in pg/mL. TNF-α concentration was determined by ELISA using a Human TNF-alpha ELISA MAX™ Deluxe from BioLegend (Catalog #430205) and read on VICTOR Nivo™ from PerkinElmer. Results were expressed in pg/mL.
Specifically, the MEC of each compound (micromolar) was determined as the lowest concentration of the compound that induced a measured cytokine response at a level ([…]) that was at least 2× greater than that observed with the negative control wells.

[1] = read-out: MEC to induce cytokine: IFN-alpha
[2] = read-out: MEC to induce cytokine: TNF-alpha

SMILES	minimal effective concentration [1] [µM]	minimal effective concentration [2] [µM]
CCCCCCCCCCCCCCCCCNC(=O)C(=O)NCCCCOn1c(CCCC)nc2c(N)nc3ccccc3c21 [Example 1, N1-(4-((4-amino-2-butyl-1H-imidazo[4,5-c]quinolin-1-yl)oxy)butyl)-N2-heptadecyloxalamide]	> 33.3	11.1
CCCCCCCCCCCCCCCCCc1noc(CCCCOn2c(CCCC)nc3c(N)nc4ccccc4c32)n1 [Example 11, 2-butyl-1-(4-(3-heptadecyl-1,2,4-oxadiazol-5-yl)butoxy)-1H-imidazo[4,5-c]quinolin-4-amine]	11.1	33.3
CCCCCCCCCCCCCCCCCNc1c(N(CCCCOn2c(CCCC)nc3c(N)nc4ccccc4c32)CCCN(C)C)c(=O)c1=O [Example 7, 3-((4-((4-amino-2-butyl-1H-imidazo[4,5-c]quinolin-1-yl)oxy)butyl)(3-(dimethylamino)propyl)amino)-4-(heptadecylamino)cyclobut-3-ene-1,2-dione]	0.0152	0.41
CCCCCCCCCCCCCCCCCNC(=O)C(=O)N(CCCCOn1c(CCCC)nc2c(N)nc3ccccc3c21)CCCN(C)C [Example 6, N1-(4-((4-amino-2-butyl-1H-imidazo[4,5-c]quinolin-1-yl)oxy)butyl)-N1-(3-(dimethylamino)propyl)-N2-heptadecyloxalamide]	> 100	> 100
CCCCCCCCCCCCCCCCCN(CCCN(C)C)c1c(NCCCCOn2c(CCCC)nc3c(N)nc4ccccc4c32)c(=O)c1=O [Example 12, 3-(4-(4-amino-2-butyl-1H-imidazo[4,5-c]quinolin-1-yloxy)butylamino)-4-((3-(dimethylamino)propyl)(heptadecyl)amino)cyclobut-3-ene-1,2-dione]	0.0152	0.41
CCCCCCCCCCCCCCCCCCN(CCCCOn1c(CCCC)nc2c(N)nc3ccccc3c21)CCCN(C)C [Example 5, N1-(4-((4-amino-2-butyl-1H-imidazo[4,5-c]quinolin-1-yl)oxy)butyl)-N3,N3-dimethyl-N1-octadecylpropane-1,3-diamine]	1.23	11.1
CCCCCCCCCCCCCCCCCNc1c(NCCCCOn2c(CCCC)nc3c(N)nc4ccccc4c32)c(=O)c1=O [Example 2, 3-((4-((4-amino-2-butyl-1H-imidazo[4,5-c]quinolin-1-yl)oxy)butyl)amino)-4-(heptadecylamino)cyclobut-3-ene-1,2-dione]	0.0152	0.0457
CCCCCCCCCCCCCCCCCc1nc(CCCCOn2c(CCCC)nc3c(N)nc4ccccc4c32)no1 [Example 10, 2-butyl-1-(4-(5-heptadecyl-1,2,4-oxadiazol-3-yl)butoxy)-1H-imidazo[4,5-c]quinolin-4-amine]	11.1	3.7
CCCCCCCCCCCCCCCCN1CCC(C(=O)NCCCCOn2c(CCCC)nc3c(N)nc4ccccc4c32)CC1 [Example 3, N-(4-((4-amino-2-butyl-1H-imidazo[4,5-c]quinolin-1-yl)oxy)butyl)-1-hexadecylpiperidine-4-carboxamide]	0.137	0.137
